# Reference: PubChem BioAssay AID977628 (Broad Institute, 2014)
# Results filed as inconclusive are left out. Activity calls are given as the source filed them.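 The calls were made as follows: active = compound lowering the normal-ribosome reporter at least twice as much as the humanized-ribosome reporter, growth loss under a set limit; inconclusive = no clear call, values can overlap the other calls; inactive = the rest.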
# How the values were obtained:
# Test in all cases: E. coli growth inhibition, wild-type GFP versus h24 humanized RFP strain, dose response, h24 mutant RFP vs wild-type GFP, cherry-pick (AID 977628)
# [1] = test system: E. coli h24 humanized mutant RFP strain growth, fluorescence, 24 h
# [2] = test system: E. coli WT GFP strain growth, fluorescence, 24 h
# [3] = test system: E. coli mixed WT/h24 culture total growth, OD600, 24 h
Compound,AC50 [1] [µM],AC50 [2],AC50 [3] [µM]
O=C(NCCCn1ccnc1)c1sc2cc([N+](=O)[O-])ccc2c1Cl,> 100,,
CC(=O)Nc1cccc(OCc2ccc([N+](=O)[O-])cc2)c1,> 100,,
COC(=O)c1cc2ccccc2n1S(=O)(=O)c1ccccc1,> 100,,
N#Cc1nc(-c2ccco2)oc1NCc1ccccc1Cl,> 100,,
O=C1c2ccccc2C(c2nnnn2C2CCCCC2)N1CCc1ccc(O)cc1 (stereo unspecified),> 100,,
O=C(c1cccs1)c1c[nH]cc1-c1ccccc1,> 100,,
O=C(Nc1ccc(Br)cc1)c1cccnc1N1CCCCC1,> 100,,
COCC(C)NC(=O)c1nn(Cc2ccccc2)c(=O)c2ccccc12 (stereo unspecified),> 100,,
CCOC(=O)C(C)Sc1nc(N2CCOCC2)c2c(c1C#N)CC(C)(C)OC2 (stereo unspecified),> 100,,
O=C(O)CC1(CC(=O)Nc2ccc3sccc3c2)CCCCC1,> 100,,
C=CCNC(=O)c1ccccc1CCc1ccccc1,> 100,,
O=C(CSCc1ccc(Br)cc1)NCc1ccccn1,> 100,,
Cc1ccc(C(=O)Nc2ccc3ncccc3c2)cc1,> 100,,
CSc1nc2nc3c(cc2c(=O)n1-c1ccccc1C)CCCC3,6.76,,
CCOc1ccc(OCCn2c(=S)[nH]c3c(N)ncnc32)cc1,,> 100 µM (inactive),47.8
COc1cc(C(F)(F)F)c(C(=O)N(C)Cc2ccc(Cl)c(Cl)c2)cn1,,> 100 µM (inactive),> 100
CCn1cc(Cl)c(C(=O)Nc2cccc(C(F)(F)F)c2)n1,,> 100 µM (inactive),> 100
COc1ccc(C(=O)Nc2ccc3oc(Cc4ccc(Cl)cc4)nc3c2)cc1OC,,> 100 µM (inactive),> 100
O=S(=O)(Nc1ccc(-c2nc3cccnc3s2)cc1)c1cc(F)ccc1F,,> 100 µM (inactive),> 100
COc1cc(NC(=O)CSCc2ccc(Cl)cc2Cl)c(C(=O)O)cc1OC,,> 100 µM (inactive),> 100

Compound,AC50 [1] [µM],AC50 [2],AC50 [3] [µM]
O=c1c2ccccc2cnn1Cc1n[nH]c(=S)n1C1CC2CCC1C2 (stereo unspecified),,> 100 µM (inactive),> 100
CCN(c1ccccc1)S(=O)(=O)c1ccc(Cl)c(C(=O)NCc2ccco2)c1,,> 100 µM (inactive),38.5
Cc1nnn(C23CC4CC(CC(CC(=O)Nc5ccc(C)c(C)c5)(C4)C2)C3)n1,,> 100 µM (inactive),> 100
CCCNC(=O)c1cc(C2CCCN(S(=O)(=O)c3cccc4cccnc34)C2)on1 (stereo unspecified),,> 100 µM (inactive),> 100
COc1ccc(C(=O)COC(=O)c2ccccc2O)c(OC)c1,,> 100 µM (inactive),40
Cc1cc(C)n(CC(O)COc2ccc3ccccc3c2)n1 (stereo unspecified),,> 100 µM (inactive),> 100
CC1CCN(c2ccc3nnc(CCC(=O)Nc4cccc(F)c4)n3n2)CC1,,> 100 µM (inactive),> 100
COc1ccc(S(=O)(=O)N2CCCCN3[C@@H](CO)[C@H](c4ccc(C#CC(C)C)cc4)[C@@H]3C2)cc1,,> 100 µM (inactive),47
COc1ccc(-c2ccccc2)cc1NC(=O)c1ccncc1,,> 100 µM (inactive),> 100
Nc1[nH]c(C(=O)c2ccccc2)c(-c2ccc(Cl)cc2)c1C(=O)NCCc1c[nH]c2ccccc12,,> 100 µM (inactive),> 100
O=C(COC(=O)C12CC3CC(CC(O)(C3)C1)C2)NCCc1ccc(Cl)cc1,,> 100 µM (inactive),> 100
CC(C)Oc1cccc(C(=O)C2CCCN(C(=O)c3cc(C(F)(F)F)[nH]n3)C2)c1 (stereo unspecified),,> 100 µM (inactive),51.3
O=C(CSc1ccc(-c2cccnc2)nn1)N1CCCc2ccccc21,,> 100 µM (inactive),> 100
CCCNC(=O)c1noc2c1CCc1cc(OC)ccc1-2,,> 100 µM (inactive),34.8
O=C(COc1ccc(Cl)cc1)Nc1ncc([N+](=O)[O-])s1,,> 100 µM (inactive),40.2
O=C(Nc1cccc(Cl)c1)N1C[C@@H]2[C@H](c3ccccc31)[C@H](CO)N2Cc1ccncc1,,> 100 µM (inactive),> 100
O=C(Nc1ccc(F)cc1)N1CCCCN2[C@@H](CO)[C@H](c3ccc(-c4ccncc4)cc3)[C@@H]2C1,,> 100 µM (inactive),> 100
COc1ccc(-c2nc3ccc(Cl)cn3c2Cc2cccc(F)c2)cc1OC,,> 100 µM (inactive),51.6
CN(C)CCCN(C(=O)c1ccc(S(=O)(=O)N(C)Cc2ccccc2)cc1)c1nc2c(F)cccc2s1,,> 100 µM (inactive),39.3
Cc1c(C(=O)N(Cc2ccc(F)cc2)C2CCS(=O)(=O)C2)oc2ccccc12 (stereo unspecified),,> 100 µM (inactive),> 100

Compound,AC50 [1] [µM],AC50 [2],AC50 [3] [µM]
CCc1ccc(NC(=O)COC(=O)CCCC2=NS(=O)(=O)c3ccccc3N2)cc1,,> 100 µM (inactive),> 100
Cc1cc(OCC(=O)N(Cc2ccco2)C2CCS(=O)(=O)C2)ccc1Cl (stereo unspecified),,> 100 µM (inactive),> 100
C=CCn1c(CCSCc2ccc(OC)c(C)c2)n[nH]c1=S,,> 100 µM (inactive),51.2
CCn1c(CNC(=O)c2ccccc2F)cc2cc(C)ccc21,,> 100 µM (inactive),> 100
CCN(c1ccccc1)S(=O)(=O)c1ccc(OC)c(OC)c1,,> 100 µM (inactive),> 100
COc1ccc(CC(=O)NCc2csc(-c3cccs3)n2)cc1OC,,> 100 µM (inactive),> 100
Cc1cc(NC(=O)COC(=O)CSCc2ccc(Cl)c(Cl)c2)no1,,> 100 µM (inactive),> 100
O=C(CN(c1ccc(F)cc1)S(=O)(=O)c1ccccc1)Nc1ccccc1C(=O)O,,> 100 µM (inactive),> 100
COc1ccc(NC(=O)CCS(=O)(=O)c2ccccc2Cl)cc1S(=O)(=O)Nc1ccc(Cl)cc1,,> 100 µM (inactive),> 100
C=CCn1c(-c2cc3cccc(OC)c3o2)n[nH]c1=S,,> 100 µM (inactive),> 100
O=C(NCc1ccc(-c2nc3ccccc3s2)cc1)c1ccco1,,> 100 µM (inactive),4.43
COc1cccc(OCCNS(=O)(=O)c2ccccc2[N+](=O)[O-])c1,,> 100 µM (inactive),> 100
Cc1nc([N+](=O)[O-])c(Br)n1CC(=O)c1ccc(F)cc1,,> 100 µM (inactive),> 100
COC(=O)c1c(C)oc(C)c1S(=O)(=O)NC(c1ccccc1)c1ccccc1,,> 100 µM (inactive),44.4
Cn1c(SCC(=O)Nc2ccccc2-c2ccccc2)nnc1-c1ccco1,,> 100 µM (inactive),> 100
O=C(Nc1ccc2c(c1)OCO2)c1cccc(S(=O)(=O)N2CCCC2)c1,,> 100 µM (inactive),> 100
N#CCC(=O)Nc1ccc(C(=O)OCC(=O)Nc2ccc3ccccc3c2)cc1,,> 100 µM (inactive),> 100
COc1ccc(C(=O)Nc2ccc3nc(C)sc3c2)cc1OC,,> 100 µM (inactive),> 100
CC(C)Oc1cccc(C(=O)C2CCCN(Cc3ccc4nonc4c3)C2)c1 (stereo unspecified),,> 100 µM (inactive),36.8
Cc1ccc2nc(N(CCN(C)C)C(=O)C3CCN(S(=O)(=O)c4cccs4)CC3)sc2c1,,> 100 µM (inactive),> 100
